Laboratory results from PMC5669110 (Pharmacognosy Magazine, 2017).
One block for each compound: values may come before it.

Experiments:
Assay in all cases: fluorogenic HDAC8 inhibitor screening kit
Format in all cases: biochemical
[1] = biological target: T1, HDAC8 (histone deacetylase family member 8) (Homo sapiens, UniProt Q9BY41); settings: read-out: % inhibition at 24.2 μM
T1 sequence (Q9BY41 1-377): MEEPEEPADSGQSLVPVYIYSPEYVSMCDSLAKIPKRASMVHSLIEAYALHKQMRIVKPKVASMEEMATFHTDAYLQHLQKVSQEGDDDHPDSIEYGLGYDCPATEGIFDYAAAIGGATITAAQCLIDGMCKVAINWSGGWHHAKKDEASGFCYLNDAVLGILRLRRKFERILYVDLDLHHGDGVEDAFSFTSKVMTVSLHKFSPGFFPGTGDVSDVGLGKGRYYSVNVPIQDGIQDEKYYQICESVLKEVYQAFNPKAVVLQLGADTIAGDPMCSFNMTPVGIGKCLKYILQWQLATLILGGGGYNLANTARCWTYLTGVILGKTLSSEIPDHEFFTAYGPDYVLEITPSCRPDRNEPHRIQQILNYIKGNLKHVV

[2] = biological target: T1, HDAC8 (histone deacetylase family member 8); settings: read-out: % inhibition at 60.75 μM
[3] = biological target: T1, HDAC8 (histone deacetylase family member 8); settings: read-out: % inhibition at 310.25 μM

inhibition at 24.2 µM [1]: 5.7%
SMILES: OCC=Cc1ccccc1 [CALC, Cinnamyl alcohol]

inhibition at 60.75 µM [2]: 9.3%
SMILES: O=C(O)/C=C/c1ccccc1 [CA, Cinnamic acid]

SMILES: O=C/C=C/c1ccccc1 [CAL, Cinnamaldehyde]
inhibition at 310.25 µM [3]: 18.5%
